# Reference: US20260365682A1, “MODULATORS OF TNF-ALPHA ACTIVITY” (Forward Therapeutics, Inc., priority 2022, published 2026)
# Molecular target: T1, TNF-α (Homo sapiens, UniProt P01375)
# T1 construct: purchased R&D 210-TA-020/CF
# Experiment: TNF-α Induced HEK Blue Cellular Assay (secreted alkaline phosphatase expression, QUANTI-Blue)
# Format: cell-based
# Conditions: HEK Blue TNFα reporter cells; TNF-α 100 μg/ml; 24 hrs at 37° C.; inhibition of secreted alkaline phosphatase; read-out: IC50 value
# Method in brief: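 Compound was serially diluted from […] to 0.5 nM final, then incubated with 10,000 HEK Blue TNFα reporter cells per well and […] TNF-α for 24 h at 37° C. SEAP output was read by QUANTI-Blue absorbance at 620 nm. Inhibition was background-corrected against DMSO controls with and without stimulation, and IC50 was fitted with a 4-parameter logistic equation.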
# T1 sequence (P01375 77-233 limits assumed): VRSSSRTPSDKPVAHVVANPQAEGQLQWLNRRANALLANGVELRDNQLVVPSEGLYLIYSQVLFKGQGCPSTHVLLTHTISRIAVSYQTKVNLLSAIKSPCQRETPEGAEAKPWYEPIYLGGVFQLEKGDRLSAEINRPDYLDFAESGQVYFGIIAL
row,IC50,Structure (SMILES)
1,< 0.1 µM,"[2H]C([2H])([2H])N1C(=O)c2cccc(OC(F)F)c2[C@H]2C[C@@H]1c1nc3ccc(C#CCC4CC4)cc3n12 [Example 105, (7R,14R)-11-(3-cyclopropylprop-1-yn-1-yl)-1-(difluoromethoxy)-6-(methyl-d3)-6,7-dihydro-7,14-methanobenzo[f]benzo[4,5]imidazo[1,2-a][1,4]diazocin-5(14H)-one]"
2,< 0.1 µM,"[2H]C([2H])([2H])N1C(=O)c2cccc(OC(F)F)c2[C@H]2C[C@@H]1c1nc3ccc(C#CC4(C)COC4)cc3n12 [Example 96, (7R,14R)-1-(difluoromethoxy)-6-(methyl-d3)-11-((3-methyloxetan-3-yl)ethynyl)-6,7-dihydro-7,14-methanobenzo[f]benzo[4,5]imidazo[1,2-a][1,4]diazocin-5(14H)-one]"
3,< 0.1 µM,"[2H]C([2H])([2H])N1C(=O)c2cccc(OC(F)F)c2[C@H]2C[C@@H]1c1nc3ccc(C#CC(=O)OC)cc3n12 [Example 27, methyl 3-((7R,14R)-1-(difluoromethoxy)-6-(methyl-d3)-5-oxo-5,6,7,14-tetrahydro-7,14-methanobenzo[f]benzo[4,5]imidazo[1,2-a][1,4]diazocin-11-yl)propiolate]"
4,< 0.1 µM,"[2H]C([2H])([2H])N1C(=O)c2cccc(OC(F)F)c2[C@H]2C[C@@H]1c1nc3ccc(CCCCO)cc3n12 [Example 99, (7R,14R)-1-(difluoromethoxy)-11-(4-hydroxybutyl)-6-(methyl-d3)-6,7-dihydro-7,14-methanobenzo[f]benzo[4,5]imidazo[1,2-a][1,4]diazocin-5(14H)-one]"
5,0.1 to 1 µM,"[2H]C([2H])([2H])N1C(=O)c2cccc(OC(F)F)c2[C@H]2C[C@@H]1c1nc3ccc(C#CCCNCC)cc3n12 [Example 152, (7R,14R)-1-(difluoromethoxy)-11-(4-(ethylamino)but-1-yn-1-yl)-6-(methyl-d3)-6,7-dihydro-7,14-methanobenzo[f]benzo[4,5]imidazo[1,2-a][1,4]diazocin-5(14H)-one]"
6,< 0.1 µM,"[2H]C([2H])([2H])N1C(=O)c2cccc(OC(F)F)c2[C@H]2C[C@@H]1c1nc3ccc(C#CCCCO)cc3n12 [Example 83, (7R,14R)-1-(difluoromethoxy)-11-(5-hydroxypent-1-yn-1-yl)-6-(methyl-d3)-6,7-dihydro-7,14-methanobenzo[f]benzo[4,5]imidazo[1,2-a][1,4]diazocin-5(14H)-one]"
7,0.1 to 1 µM,"[2H]C([2H])([2H])N1C(=O)c2cccc(OC(F)F)c2[C@H]2C[C@@H]1c1nc3ccc(C#CC(C)OCC)cc3n12 (stereo partly drawn) [Example 78, (7R,14R)-1-(difluoromethoxy)-11-(3-ethoxybut-1-yn-1-yl)-6-(methyl-d3)-6,7-dihydro-7,14-methanobenzo[f]benzo[4,5]imidazo[1,2-a][1,4]diazocin-5(14H)-one]"
8,0.1 to 1 µM,"[2H]C([2H])([2H])N1C(=O)c2cccc(OC(F)F)c2[C@H]2C[C@@H]1c1nc3ccc(C#CCCCNC)cc3n12 [Example 153, (7R,14R)-1-(difluoromethoxy)-6-(methyl-d3)-11-(5-(methylamino)pent-1-yn-1-yl)-6,7-dihydro-7,14-methanobenzo[f]benzo[4,5]imidazo[1,2-a][1,4]diazocin-5(14H)-one]"
9,< 0.1 µM,"[2H]C([2H])([2H])N1C(=O)c2cccc(OC(F)F)c2[C@H]2C[C@@H]1c1nc3ccc(C#CC4CC(C#N)C4)cc3n12 (stereo partly drawn) [Example 141, 3-(((7R,14R)-1-(difluoromethoxy)-6-(methyl-d3)-5-oxo-5,6,7,14-tetrahydro-7,14-methanobenzo[f]benzo[4,5]imidazo[1,2-a][1,4]diazocin-11-yl)ethynyl)cyclobutane-1-carbonitrile]"
10,< 0.1 µM,"[2H]C([2H])([2H])N1C(=O)c2cccc(OC(F)F)c2[C@H]2C[C@@H]1c1nc3ccc(C#C[C@@H](C)COC)cc3n12 [Example 147, (7R,14R)-1-(difluoromethoxy)-11-((R)-4-methoxy-3-methylbut-1-yn-1-yl)-6-(methyl-d3)-6,7-dihydro-7,14-methanobenzo[f]benzo[4,5]imidazo[1,2-a][1,4]diazocin-5(14H)-one]"
11,< 0.1 µM,"[2H]C([2H])([2H])N1C(=O)c2cccc(OC(F)F)c2[C@H]2C[C@@H]1c1nc3ccc(C#CC4CN(C5COC5)C4C)cc3n12 (single isomer, unassigned) [Example 258, (7R,14R)-1-(difluoromethoxy)-6-(methyl-d3)-11-(((2R or 2S)-2-methyl-1-(oxetan-3-yl)azetidin-3-yl)ethynyl)-6,7-dihydro-7,14-methanobenzo[f]benzo[4,5]imidazo[1,2-a][1,4]diazocin-5(14H)-one]"
12,< 0.1 µM,"[2H]C([2H])([2H])N1C(=O)c2cccc(OC(F)F)c2[C@H]2C[C@@H]1c1nc3ccc(C#CCN(CC)CC)cc3n12 [Example 62, (7R,14R)-11-(3-(diethylamino)prop-1-yn-1-yl)-1-(difluoromethoxy)-6-(methyl-d3)-6,7-dihydro-7,14-methanobenzo[f]benzo[4,5]imidazo[1,2-a][1,4]diazocin-5(14H)-one]"
13,< 0.1 µM,"[2H]C([2H])([2H])N1C(=O)c2cccc(OC(F)F)c2[C@H]2C[C@@H]1c1nc3ccc(C#CCC(O)C(C)O)cc3n12 (single isomer, unassigned) [Example 246, (7R,14R)-1-(difluoromethoxy)-11-((4R or 4S,5R or 5S)-4,5-dihydroxyhex-1-yn-1-yl)-6-(methyl-d3)-6,7-dihydro-7,14-methanobenzo[f]benzo[4,5]imidazo[1,2-a][1,4]diazocin-5(14H)-one]"
14,10 to 30 µM,"[2H]C([2H])([2H])N1C(=O)c2cccc(OC(F)F)c2[C@H]2C[C@@H]1c1nc3ccc(C#CC(O)CC)cc3n12 (single isomer, unassigned) [Example 209, (7R,14R)-1-(difluoromethoxy)-11-((S or R)-3-hydroxypent-1-yn-1-yl)-6-(methyl-d3)-6,7-dihydro-7,14-methanobenzo[f]benzo[4,5]imidazo[1,2-a][1,4]diazocin-5(14H)-one]"
15,< 0.1 µM,"[2H]C([2H])([2H])N1C(=O)c2cccc(OC(F)F)c2[C@H]2C[C@@H]1c1nc3ccc(C#CCC(C)O)cc3n12 (single isomer, unassigned) [Example 140, (7R,14R)-1-(difluoromethoxy)-11-((S or R)-4-hydroxypent-1-yn-1-yl)-6-(methyl-d3)-6,7-dihydro-7,14-methanobenzo[f]benzo[4,5]imidazo[1,2-a][1,4]diazocin-5(14H)-one]"
16,10 to 30 µM,"[2H]C([2H])([2H])N1C(=O)c2cccc(OC(F)F)c2[C@H]2C[C@@H]1c1nc3ccc(C#CC4(O)CNC4)cc3n12 [Example 251, (7R,14R)-1-(difluoromethoxy)-11-((3-hydroxyazetidin-3-yl)ethynyl)-6-(methyl-d3)-6,7-dihydro-7,14-methanobenzo[f]benzo[4,5]imidazo[1,2-a][1,4]diazocin-5(14H)-one]"
17,< 0.1 µM,"[2H]C([2H])([2H])N1C(=O)c2cccc(OC(F)F)c2[C@H]2C[C@@H]1c1nc3ccc(C#CC4CC(C)(C#N)C4)cc3n12 (stereo partly drawn) [Example 159, 3-(((7R,14R)-1-(difluoromethoxy)-6-(methyl-d3)-5-oxo-5,6,7,14-tetrahydro-7,14-methanobenzo[f]benzo[4,5]imidazo[1,2-a][1,4]diazocin-11-yl)ethynyl)-1-methylcyclobutane-1-carbonitrile]"
18,0.1 to 1 µM,"[2H]C([2H])([2H])N1C(=O)c2cccc(OC(F)F)c2[C@H]2C[C@@H]1c1nc3c(F)cc(C#CC)cc3n12 [Example 109, (7R,14R)-1-(difluoromethoxy)-9-fluoro-6-(methyl-d3)-11-(prop-1-yn-1-yl)-6,7-dihydro-7,14-methanobenzo[f]benzo[4,5]imidazo[1,2-a][1,4]diazocin-5(14H)-one]"
19,0.1 to 1 µM,"[2H]C([2H])([2H])N1C(=O)c2cccc(OC(F)F)c2[C@H]2C[C@@H]1c1nc3ccc(C#CC(O)C(F)(F)F)cc3n12 (single isomer, unassigned) [Example 199, (7R,14R)-1-(difluoromethoxy)-6-(methyl-d3)-11-((R or S)-4,4,4-trifluoro-3-hydroxybut-1-yn-1-yl)-6,7-dihydro-7,14-methanobenzo[f]benzo[4,5]imidazo[1,2-a][1,4]diazocin-5(14H)-one]"
20,< 0.1 µM,"[2H]C([2H])([2H])N1C(=O)c2cccc(OC(F)F)c2[C@H]2C[C@@H]1c1nc3ccc(C#CC4CCOC4)cc3n12 (stereo partly drawn) [Example 102, (7R,14R)-1-(difluoromethoxy)-6-(methyl-d3)-11-((tetrahydrofuran-3-yl)ethynyl)-6,7-dihydro-7,14-methanobenzo[f]benzo[4,5]imidazo[1,2-a][1,4]diazocin-5(14H)-one]"
21,< 0.1 µM,"[2H]C([2H])([2H])N1C(=O)c2cccc(OC(F)F)c2[C@H]2C[C@@H]1c1nc3ccc(C#Cc4cnn(C)c4C#N)cc3n12 [Example 24, 4-(((7R,14R)-1-(difluoromethoxy)-6-(methyl-d3)-5-oxo-5,6,7,14-tetrahydro-7,14-methanobenzo[f]benzo[4,5]imidazo[1,2-a][1,4]diazocin-11-yl)ethynyl)-1-methyl-1H-pyrazole-5-carbonitrile]"
22,10 to 30 µM,"[2H]C([2H])([2H])N1C(=O)c2cccc(OC(F)F)c2[C@H]2C[C@@H]1c1nc3ccc(C#CC4CCCCN4)cc3n12 (stereo partly drawn) [Example 47, (7R,14R)-1-(difluoromethoxy)-6-(methyl-d3)-11-(piperidin-2-ylethynyl)-6,7-dihydro-7,14-methanobenzo[f]benzo[4,5]imidazo[1,2-a][1,4]diazocin-5(14H)-one]"

# Same assay, conditions: IC50 value, HEK Blue TNFα reporter cells; TNF-α 100 μg/ml; 24 hrs at 37° C.; inhibition of secreted alkaline phosphatase
row,IC50,Structure (SMILES)
1,< 0.1 µM,"[2H]C([2H])([2H])N1C(=O)c2cccc(OC(F)F)c2[C@H]2C[C@@H]1c1nc3ccc(C#CCCN4CCC4)cc3n12 [Example 135, (7R,14R)-11-(4-(azetidin-1-yl)but-1-yn-1-yl)-1-(difluoromethoxy)-6-(methyl-d3)-6,7-dihydro-7,14-methanobenzo[f]benzo[4,5]imidazo[1,2-a][1,4]diazocin-5(14H)-one]"
